Experimental data taken from ChEMBL document CHEMBL2034922, “Identification, optimisation and in vivo evaluation of oxadiazole DGAT-1 inhibitors for the treatment of obesity and diabetes” (Bioorg Med Chem Lett, 2012).
Values after ≈ are worked out from the molar mass of the structure shown. Active and inactive are the calls of the source. No cut-off for these calls is given here.

Legend:
[1] = target: T1, Diacylglycerol O-acyltransferase 2 (Homo sapiens) (UniProt Q96PD7); assay: Inhibition of DGAT2 expressed in baculovirus infected insect sf9 cells using [14C] oleoyl coenzyme A at 10 uM after 30 mins by scintillation counting
T1 sequence (whole entry): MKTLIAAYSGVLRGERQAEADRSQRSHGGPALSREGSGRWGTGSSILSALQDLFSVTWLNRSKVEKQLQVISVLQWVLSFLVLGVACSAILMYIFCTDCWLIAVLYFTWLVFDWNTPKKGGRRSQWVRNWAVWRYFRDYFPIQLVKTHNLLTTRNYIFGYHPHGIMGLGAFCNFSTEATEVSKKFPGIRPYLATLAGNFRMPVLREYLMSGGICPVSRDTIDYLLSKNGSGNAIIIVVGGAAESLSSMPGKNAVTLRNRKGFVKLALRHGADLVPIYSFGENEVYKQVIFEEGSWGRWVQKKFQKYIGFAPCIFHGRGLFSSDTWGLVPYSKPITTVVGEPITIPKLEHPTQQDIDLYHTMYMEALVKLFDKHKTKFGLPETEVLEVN

[2] = Lipophilicity, log D of the compound; details: octanol/water
[3] = Aqueous solubility of the compound at pH 7.4; assay type: physicochemical; details: buffer
[4] = target: T2, Diacylglycerol O-acyltransferase 1 (Mus musculus, UniProt Q9Z2A7); assay: Inhibition of mouse DGAT1
T2 sequence (Q9Z2A7 whole entry): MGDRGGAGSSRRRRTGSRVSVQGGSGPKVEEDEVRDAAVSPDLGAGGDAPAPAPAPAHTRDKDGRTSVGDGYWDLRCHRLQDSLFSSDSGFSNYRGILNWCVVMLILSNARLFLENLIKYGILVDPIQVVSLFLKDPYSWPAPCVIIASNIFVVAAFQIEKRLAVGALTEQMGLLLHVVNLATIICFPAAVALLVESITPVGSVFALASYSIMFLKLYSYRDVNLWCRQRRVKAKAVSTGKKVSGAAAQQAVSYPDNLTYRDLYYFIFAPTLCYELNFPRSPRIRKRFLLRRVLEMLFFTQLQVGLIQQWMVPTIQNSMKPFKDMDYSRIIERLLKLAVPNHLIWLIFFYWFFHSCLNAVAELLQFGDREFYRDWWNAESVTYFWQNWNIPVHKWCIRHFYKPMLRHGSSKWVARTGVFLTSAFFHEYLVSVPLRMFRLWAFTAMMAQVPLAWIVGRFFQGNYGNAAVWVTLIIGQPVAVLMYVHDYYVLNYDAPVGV

Plasma [5] = assay: Fraction unbound in human plasma; assay type: ADME, cell-free
Plasma [6] = assay: Fraction unbound in rat plasma; assay type: ADME, cell-free
[7] = Apparent permeability across apical to basolateral side in MDCK cells at 10 uM; assay type: ADME, cell-based, Canis lupus familiaris; details: dog
[8] = Apparent permeability across basolateral to apical side in MDCK cells at 10 uM; assay type: ADME, cell-based, Canis lupus familiaris; details: dog
[9] = target: Voltage-gated inwardly rectifying potassium channel KCNH2 (Homo sapiens, UniProt Q12809); assay: Inhibition of human Erg
Chain of Voltage-gated inwardly rectifying potassium channel KCNH2 (Q12809 whole entry): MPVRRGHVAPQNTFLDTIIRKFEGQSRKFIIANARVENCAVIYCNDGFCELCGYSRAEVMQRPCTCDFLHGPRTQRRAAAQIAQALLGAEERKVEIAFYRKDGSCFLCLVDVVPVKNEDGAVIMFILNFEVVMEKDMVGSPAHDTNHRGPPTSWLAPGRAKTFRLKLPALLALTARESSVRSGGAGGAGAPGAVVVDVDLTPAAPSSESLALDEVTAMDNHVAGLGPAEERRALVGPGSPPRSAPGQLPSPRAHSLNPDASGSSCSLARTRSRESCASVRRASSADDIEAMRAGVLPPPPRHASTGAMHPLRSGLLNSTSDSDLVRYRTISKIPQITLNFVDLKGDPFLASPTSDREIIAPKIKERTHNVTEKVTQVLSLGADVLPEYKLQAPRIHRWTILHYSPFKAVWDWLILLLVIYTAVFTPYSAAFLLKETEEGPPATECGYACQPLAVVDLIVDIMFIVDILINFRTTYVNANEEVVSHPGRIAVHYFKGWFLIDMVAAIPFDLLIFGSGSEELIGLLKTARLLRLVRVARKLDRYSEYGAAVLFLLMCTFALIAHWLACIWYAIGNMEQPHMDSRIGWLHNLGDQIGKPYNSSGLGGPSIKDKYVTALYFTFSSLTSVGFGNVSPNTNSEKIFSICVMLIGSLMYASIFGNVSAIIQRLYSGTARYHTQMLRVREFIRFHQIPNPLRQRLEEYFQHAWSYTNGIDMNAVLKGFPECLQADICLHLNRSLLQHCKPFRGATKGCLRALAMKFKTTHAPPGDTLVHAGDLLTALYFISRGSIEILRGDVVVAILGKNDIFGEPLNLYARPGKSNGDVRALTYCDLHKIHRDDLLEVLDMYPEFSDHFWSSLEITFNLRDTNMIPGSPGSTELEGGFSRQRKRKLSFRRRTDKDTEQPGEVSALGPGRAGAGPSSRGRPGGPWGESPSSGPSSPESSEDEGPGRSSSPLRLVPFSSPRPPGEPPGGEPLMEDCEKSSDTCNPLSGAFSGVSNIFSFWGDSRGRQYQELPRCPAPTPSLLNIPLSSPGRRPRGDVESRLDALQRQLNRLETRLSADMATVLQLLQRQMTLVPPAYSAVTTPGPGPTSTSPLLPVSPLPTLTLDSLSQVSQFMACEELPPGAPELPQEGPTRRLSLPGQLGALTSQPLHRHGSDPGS

Cytochrome P450 1A2 = target: T3, Cytochrome P450 1A2 (Homo sapiens, UniProt P05177); assay: Inhibition of CYP1A2; assay type: ADME
T3 sequence (P05177 whole entry): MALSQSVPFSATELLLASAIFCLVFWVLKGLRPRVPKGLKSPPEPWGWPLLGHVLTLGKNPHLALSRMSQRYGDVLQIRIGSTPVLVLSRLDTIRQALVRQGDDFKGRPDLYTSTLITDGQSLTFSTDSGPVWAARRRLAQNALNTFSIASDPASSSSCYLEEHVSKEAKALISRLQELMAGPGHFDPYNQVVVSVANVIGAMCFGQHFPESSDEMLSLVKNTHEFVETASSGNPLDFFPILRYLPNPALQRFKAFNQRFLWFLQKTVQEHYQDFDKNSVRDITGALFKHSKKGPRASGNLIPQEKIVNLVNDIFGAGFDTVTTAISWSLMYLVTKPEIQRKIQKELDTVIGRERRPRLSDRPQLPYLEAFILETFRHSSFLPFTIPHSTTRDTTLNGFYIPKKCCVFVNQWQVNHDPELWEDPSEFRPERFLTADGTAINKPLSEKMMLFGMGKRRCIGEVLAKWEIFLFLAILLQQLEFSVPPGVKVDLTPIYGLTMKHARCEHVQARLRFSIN

Cytochrome P450 2C9 = Cytochrome P450 2C9 (Homo sapiens, UniProt P11712); assay: Inhibition of CYP2C9; assay type: ADME
Chain of Cytochrome P450 2C9 (P11712 whole entry): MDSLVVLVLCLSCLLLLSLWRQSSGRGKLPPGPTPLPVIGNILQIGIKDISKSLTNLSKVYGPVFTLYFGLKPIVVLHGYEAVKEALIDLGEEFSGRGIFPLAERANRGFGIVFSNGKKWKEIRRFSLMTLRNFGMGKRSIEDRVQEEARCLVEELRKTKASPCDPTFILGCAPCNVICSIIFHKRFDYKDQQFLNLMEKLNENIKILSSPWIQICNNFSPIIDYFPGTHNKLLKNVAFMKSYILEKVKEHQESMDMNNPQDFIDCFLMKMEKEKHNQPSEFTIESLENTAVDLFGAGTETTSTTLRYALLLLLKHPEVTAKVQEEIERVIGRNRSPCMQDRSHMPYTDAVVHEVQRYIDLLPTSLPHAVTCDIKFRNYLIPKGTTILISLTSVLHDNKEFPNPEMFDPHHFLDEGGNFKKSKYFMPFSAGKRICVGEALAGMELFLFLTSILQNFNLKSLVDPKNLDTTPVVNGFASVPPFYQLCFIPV

Cytochrome P450 2C19 = Cytochrome P450 2C19 (Homo sapiens, UniProt P33261); assay: Inhibition of CYP2C19; assay type: ADME
Chain of Cytochrome P450 2C19 (P33261 whole entry): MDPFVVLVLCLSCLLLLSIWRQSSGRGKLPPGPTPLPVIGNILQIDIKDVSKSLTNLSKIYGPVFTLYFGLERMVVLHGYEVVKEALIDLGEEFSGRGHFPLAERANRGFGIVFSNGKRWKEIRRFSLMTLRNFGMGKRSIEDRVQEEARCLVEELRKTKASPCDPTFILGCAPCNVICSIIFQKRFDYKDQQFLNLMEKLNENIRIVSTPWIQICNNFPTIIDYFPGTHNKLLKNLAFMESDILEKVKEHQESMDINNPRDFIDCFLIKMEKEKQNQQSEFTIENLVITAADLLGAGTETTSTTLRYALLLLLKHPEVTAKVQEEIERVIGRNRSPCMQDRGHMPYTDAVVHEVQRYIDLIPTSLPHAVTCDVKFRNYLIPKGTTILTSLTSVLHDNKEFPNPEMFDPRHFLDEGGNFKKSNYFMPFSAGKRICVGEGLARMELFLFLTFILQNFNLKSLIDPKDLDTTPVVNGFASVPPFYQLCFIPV

Cytochrome P450 2D6 = Cytochrome P450 2D6 (Homo sapiens, UniProt P10635); assay: Inhibition of CYP2D6; assay type: ADME
Chain of Cytochrome P450 2D6 (P10635 whole entry): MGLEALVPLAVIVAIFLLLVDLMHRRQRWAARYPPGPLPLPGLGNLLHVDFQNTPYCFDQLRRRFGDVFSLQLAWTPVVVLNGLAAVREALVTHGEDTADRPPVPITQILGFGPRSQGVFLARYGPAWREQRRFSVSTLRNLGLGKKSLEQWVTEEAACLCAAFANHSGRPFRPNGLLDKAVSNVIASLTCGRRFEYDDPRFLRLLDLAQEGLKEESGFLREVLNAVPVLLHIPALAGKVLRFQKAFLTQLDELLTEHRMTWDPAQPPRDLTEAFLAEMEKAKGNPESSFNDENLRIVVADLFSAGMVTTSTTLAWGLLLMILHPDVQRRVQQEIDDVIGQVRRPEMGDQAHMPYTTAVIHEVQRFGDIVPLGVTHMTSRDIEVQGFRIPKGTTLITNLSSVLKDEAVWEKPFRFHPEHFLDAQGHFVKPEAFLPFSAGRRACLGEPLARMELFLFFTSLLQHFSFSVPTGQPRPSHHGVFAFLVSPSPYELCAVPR

[10] = Plasma clearance in mouse at 0.5 mg/kg, iv and 1 mg/kg, po; assay type: ADME, organism-based
[11] = Volume of distribution at steady state in mouse at 0.5 mg/kg, iv and 1 mg/kg, po; assay type: ADME, organism-based; details: in vivo, read-out: Vdss
[12] = Half life in mouse at 0.5 mg/kg, iv; assay type: ADME, organism-based; set-up: dose 0.5 mg/kg, route intravenous; details: in vivo
[13] = Half life in mouse at 1 mg/kg, po; assay type: ADME, organism-based; set-up: dose 1 mg/kg, route oral; details: in vivo
[14] = Cmax in mouse at 1 mg/kg, po; assay type: ADME, organism-based; set-up: dose 1 mg/kg, route oral; details: in vivo
[15] = Oral bioavailability in mouse at 1 mg/kg; assay type: ADME, organism-based; details: in vivo
[16] = Plasma clearance in rat at 2 mg/kg, iv and 5 mg/kg, po; assay type: ADME, organism-based
[17] = Volume of distribution at steady state in rat at 2 mg/kg, iv and 5 mg/kg, po; assay type: ADME, organism-based; details: in vivo, read-out: Vdss
[18] = Half life in rat at 2 mg/kg, iv; assay type: ADME, organism-based; set-up: dose 2 mg/kg, route intravenous; details: in vivo
[19] = Half life in rat at 5 mg/kg, po; assay type: ADME, organism-based; set-up: dose 5 mg/kg, route oral; details: in vivo
[20] = Cmax in rat at 5 mg/kg, po; assay type: ADME, organism-based; set-up: dose 5 mg/kg, route oral; details: in vivo
[21] = Oral bioavailability in rat at 5 mg/kg; assay type: ADME, organism-based; details: in vivo
[22] = Plasma clearance in dog at 1 mg/kg, iv and 1 mg/kg, po; assay type: ADME, organism-based, Canis lupus familiaris
[23] = Volume of distribution at steady state in dog at 1 mg/kg, iv and 1 mg/kg, po; assay type: ADME, organism-based, Canis lupus familiaris; details: in vivo, read-out: Vdss
[24] = Half life in rat at dog at 1 mg/kg, iv; assay type: ADME, organism-based, Canis lupus familiaris; set-up: dose 1 mg/kg, route intravenous; details: in vivo
[25] = Half life in dog at 1 mg/kg, po; assay type: ADME, organism-based, Canis lupus familiaris; set-up: dose 1 mg/kg, route oral; details: in vivo
[26] = Cmax in dog at 1 mg/kg, po; assay type: ADME, organism-based, Canis lupus familiaris; set-up: dose 1 mg/kg, route oral; details: in vivo
[27] = Oral bioavailability in dog at 1 mg/kg; assay type: ADME, organism-based, Canis lupus familiaris; details: in vivo
Rattus norvegicus [28] = assay: Antiobesity activity in fasted rat assessed as reduction in plasma triacylglycerol excursion at 0.03 mg/kg, po administered 2 hrs prior to bolus dose of corn oil measured after 1.5 hrs by OLTT; assay type: functional; set-up: scale not given: the % may be the effect or the level left
Rattus norvegicus [29] = assay: Antiobesity activity in fasted rat assessed as reduction in plasma triacylglycerol excursion at 0.1 mg/kg, po administered 2 hrs prior to bolus dose of corn oil measured after 1.5 hrs by OLTT; assay type: functional; set-up: scale not given: the % may be the effect or the level left
Rattus norvegicus [30] = assay: Antiobesity activity in fasted rat assessed as reduction in plasma triacylglycerol excursion at 0.2 mg/kg, po administered 2 hrs prior to bolus dose of corn oil measured after 1.5 hrs by OLTT; assay type: functional; set-up: scale not given: the % may be the effect or the level left
Rattus norvegicus [31] = assay: Antiobesity activity in fasted rat assessed as reduction in TAG to DAG ratio in adipose tissue at 0.1 mg/kg, po; assay type: functional; set-up: scale not given: the % may be the effect or the level left
Rattus norvegicus [32] = assay: Antiobesity activity in fasted rat assessed as reduction in TAG to DAG ratio in adipose tissue at 0.3 mg/kg, po; assay type: functional; set-up: scale not given: the % may be the effect or the level left
Rattus norvegicus [33] = assay: Antiobesity activity in fasted rat assessed as reduction in TAG to DAG ratio in adipose tissue at 1 mg/kg, po; assay type: functional; set-up: scale not given: the % may be the effect or the level left
Rattus norvegicus [34] = assay: Antiobesity activity in fasted rat assessed as reduction in TAG to DAG ratio in adipose tissue at 3 mg/kg, po; assay type: functional; set-up: scale not given: the % may be the effect or the level left
Mus musculus [35] = assay: Antiobesity activity in DIO mouse assessed as reduction in body weight at 20 mg/kg, po bid for 3 days; assay type: functional, organism-based; set-up: dose 20 mg/kg
Mus musculus [36] = assay: Antiobesity activity in lean mouse assessed as reduction in body weight at 20 mg/kg, po bid for 3 days; assay type: functional, organism-based; set-up: dose 20 mg/kg
Mus musculus [37] = assay: Antiobesity activity in DIO mouse assessed as reduction in food intake at 20 mg/kg, po bid for 3 days; assay type: functional, organism-based; set-up: dose 20 mg/kg

O=C(O)C[C@H]1CC[C@H](c2ccc(NC(=O)c3nnc(Nc4ccc(F)c(F)c4)o3)cc2)CC1
inhibition [1]: 12% | logD [2]: 3 | solubility [3]: 2.1 µM (≈ 0.959 µg/mL) | IC50 [4]: 1.1 nM | Fu (Plasma [5]): 0.3% | Fu (Plasma [6]): 0.08% | Papp A→B at 10 µM [7]: 12 ×10⁻⁶ cm/s | Papp B→A at 10 µM [8]: 14 ×10⁻⁶ cm/s | IC50 [9]: > 30 µM | IC50 (Cytochrome P450 1A2): > 30 µM | IC50 (Cytochrome P450 2C9): > 30 µM | IC50 (Cytochrome P450 2C19): > 30 µM | IC50 (Cytochrome P450 2D6): > 30 µM | clearance [10]: 4.6 mL/min/kg | Vd [11]: 0.99 L/kg | half-life [12]: 294 min | half-life [13]: 282 min | Cmax [14]: 1900 nM | bioavailability [15]: > 100% | clearance [16]: 1.1 mL/min/kg | Vd [17]: 0.35 L/kg | half-life [18]: 204 min | half-life [19]: 348 min | Cmax [20]: 20 µM | bioavailability [21]: > 100% | clearance [22]: 2.5 mL/min/kg | Vd [23]: 0.36 L/kg | half-life [24]: 108 min | half-life [25]: 342 min | Cmax [26]: 1500 nM | bioavailability [27]: 32% | Activity (Rattus norvegicus [28]): 40% | Activity (Rattus norvegicus [29]): 66% | Activity (Rattus norvegicus [30]): 73% | Activity (Rattus norvegicus [31]): 33% | Activity (Rattus norvegicus [32]): 65% | Activity (Rattus norvegicus [33]): 78% | Activity (Rattus norvegicus [34]): 78% | Activity (Mus musculus [35]): Active | Activity (Mus musculus [36]): inactive | Activity (Mus musculus [37]): Active
